Results on one compound are retold here after publication PMC6934184, “Selective DNA-PKcs inhibition extends the therapeutic index of localized radiotherapy and chemotherapy” (The Journal of Clinical Investigation, 2019).

Each structure is given as a SMILES string.

For this assay, the target named is T1, STK24 (MST3) (Homo sapiens, UniProt Q9Y6E0).
T1 construct: purchased Thermo Fisher Scientific (Life Technologies) SelectScreen
Nature of the assay: SelectScreen Z'LYTE. Format: biochemical. The method in brief: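 SelectScreen broad panel; activity (Z'LYTE, Adapta) plus binding formats. ATP: Km app for CSF1R Z'LYTE; 10 for CAMK1 Adapta. Readout = % per kinase.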

T1 sequence (Q9Y6E0 whole entry): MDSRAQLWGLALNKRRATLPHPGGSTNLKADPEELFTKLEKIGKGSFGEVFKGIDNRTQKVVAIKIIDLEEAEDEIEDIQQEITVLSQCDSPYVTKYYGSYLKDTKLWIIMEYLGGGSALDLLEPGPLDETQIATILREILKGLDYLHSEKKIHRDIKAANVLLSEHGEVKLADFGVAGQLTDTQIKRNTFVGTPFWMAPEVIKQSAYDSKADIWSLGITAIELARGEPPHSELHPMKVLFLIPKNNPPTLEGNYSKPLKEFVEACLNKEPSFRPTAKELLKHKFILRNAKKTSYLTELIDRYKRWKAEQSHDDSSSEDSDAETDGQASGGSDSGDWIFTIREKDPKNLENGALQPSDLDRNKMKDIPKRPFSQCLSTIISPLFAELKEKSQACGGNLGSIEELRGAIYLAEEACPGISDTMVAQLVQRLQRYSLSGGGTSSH

`CN(C(=O)CN1CCOCC1)c1ccc2sc3c(-c4cccc5c(=O)cc(N6CC7CCC(C6)O7)oc45)cccc3c2c1` [NU5455] returned an inhibition at 1 µM of 4.1%.
